# Source: article PMC9871035, “Discovery of structural and functional transition sites for membrane-penetrating activity of sheep myeloid antimicrobial peptide-18” (Scientific Reports, 2023)
# Where no end group is shown, it is not given here.
# Assays:
# [1] = system: S. aureus (KCTC 1621) cytoplasmic membrane; test: Membrane depolarization assay (diSC3-5); format: cell-based, Staphylococcus aureus; details: 2 × MIC, monitored over 1400 s
# Protocol: The cytoplasmic membrane depolarization activity of the peptides was measured using the membrane potential sensitive dye diSC3-5, as previously described[31],[32]. Briefly, S. aureus (KCTC 1621) was grown at 37 ℃ with agitation until the mid-log phase (OD600 = 0.3) and was harvested by centrifugation. Cells are washed twice with a buffer solution (i.e., 20 mM Glucose, 5 mM HEPES, 100 mM KCl; pH 7.4) and were resuspended to an OD600 = 0.05 in the buffer. Membrane depolarization was monitored by recording changes in the intensity of fluorescence emission of diSC3-5 after peptide concentration.
# [2] = system: Gram-negative and Gram-positive bacteria; test: MIC over the panel of six strains (GM, range); format: cell-based; details: six strains of Table 1; average value ± SD
# Protocol: The antimicrobial activity of the peptides, i.e., their MIC values, were determined against Escherichia coli (KCTC 1682), Salmonella typhimurium (KCTC 1926), Pseudomonas aeruginosa (KCTC 1637), Bacillus subtilis (KCTC 3068), Staphylococcus epidermidis (KCTC 1917), Staphylococcus aureus (KCTC 1621), and Methicillin-resistant Staphylococcus aureus (CCARM 3089, 3090 and 3095) using broth microdilution in a 96-well plate according to existing methodologies[23]. Bacteria were grown at 37 ℃ on a spinner culture until a mid-log phase diluted to 2 × 10^6 CFU/ml in 1% peptone. The bacterial suspension was added to 100 μl of the sample solution (i.e., serial twofold dilution in 1% peptone). […] All experiments were performed in triplicate and included growth and sterility controls.
# S. aureus (KCTC 1621) [3] = test: SYTOX Green uptake assay; format: cell-based, Staphylococcus aureus; details: 2 × MIC, SYTOX 0.1 μM, PBS pH 7.4
# Protocol: The membrane permeabilization activity of the peptides was determined by using the SYTOX Green uptake assay, as described previously[33]. S. aureus (KCTC 1621) grown at 37 ℃ until the mid-log phase (OD600 = 0.4). The cell pellet was washed using PBS (pH 7.4) and was diluted to an OD600 = 0.05 in PBS (pH 7.4); SYTOX was added to the final concentration of 0.1 μM and this solution was pre-incubated in the dark at 4 ℃ for 16 h. Fluorescence was monitored using a F-4500 FL spectrophotometer (Hitachi, Japan) and excitation and emission wavelengths of 480 nm and 520 nm, respectively.
# [4] = Estimation of helicity from CD; format: physicochemical; details: peptide 100 μM, from [θ]mr at 222 nm; for % α-helix, H2O: H2O (10 mM sodium phosphate, pH 7.0)
# Protocol: CD spectra were measured on a J-810 spectropolarimeter (JASCO) using a 1.0 mm path-length cell. […] Three scans were conducted from 190 to 260 nm and the data are expressed in terms of mean residue molar ellipticity [θ]mr. The mean residue ellipticity, [θ]mr (deg cm^2 dmol^-1), was calculated according to the equation [θ]mr = (100θ)/(clN), where θ is the measured ellipticity (mdeg), c is the sample concentration (mM), l is the path length (cm), and N is the number of amino acids. Percent α-helicity was calculated using the equation ([θ]mr222nm—3000)/(− 39,000 × 100)[29]. Reference values for [θ]mr222nm = 0 and 36,000 (deg cm^2 dmol^−1) were used for 0% and 100% helicity, respectively[30].
# S. aureus (KCTC 1621) [5] = test: Confocal laser scanning microscopy of FITC-labeled peptides; format: cell-based, Staphylococcus aureus; details: FITC-labeled peptide 10 μM, 37 ℃, 30 min
# Protocol: (§1) E. coli (KCTC 1682) and S. aureus (KCTC 1621) were grown at mid-log phase and washed three times with PBS (pH 7.4). The bacteria were diluted at 10^6 CFU/ml and incubated with FITC-labeled peptides (10 μM) at 37 ℃ for 30 min. After incubation, this solution was washed thrice with PBS and was then transferred to a confocal dish. […] Fluorescent images were obtained with a 488 nm bandpass filter for FITC excitation.
# E. coli (KCTC 1682) = test: as above; format: cell-based, Escherichia coli; details: FITC-labeled peptide 10 μM, 37 ℃, 30 min
# Protocol: as §1
Substance,Membrane depolarization of S. aureus (diSC3-5 fluorescence) [1],GM (geometric mean of MIC values from selected bacterial strains) [2],SYTOX Green uptake (fluorescence) (S. aureus (KCTC 1621) [3]),"% α-helix, 50% TFE [4] [%]","% α-helix, H2O [4] [%]",Localization of peptide in S. aureus (S. aureus (KCTC 1621) [5]),Localization of peptide in E. coli (E. coli (KCTC 1682))
"RGLRRLARKIAHAVKKYG-NH2 [G7,13A]",induced a significant membrane depolarization,4.5(± 2.9) μM,induced the maximal fluorescence,33.9,7.6,,
"RALRRLARKIAHAVKKYG-NH2 [G2,7,13A]",induced a significant membrane depolarization,4.3(± 2.9) μM,induced the maximal fluorescence,44.4,5.7,likely bound to the cell membrane,likely bound to the cell membrane
RGLRRLG-NH2 [R1-G7],,> 64 µM,,6.9,5.6,,
